The text below walks through data of US20080188449A1, “Treatment of Conditions Caused By Calcium Abnormalities” (priority 2004, published 2008).

Bounds are passed on as bounds.

The assay concerns NFκB transactivation. Description: κB-luciferase reporter assay (TNF-α induced). It counts as cell-based. Here is the method: Having established that triptolide induced cell death is dependent upon free calcium concentration, Applicants next determined if this was also a requirement for the inhibition of NFκB transcription. HeLa cells were transiently transfected with the κB-luciferase reporter construct for 8 hours before being washed and then cultured in the presence or absence of calcium containing medium for 16 hours. Triptolide (100 nM) was pre-incubated with cells for 1 hour before addition of 15 ng/ml of TNF-α for 4 hours.
As an additional experiment, transcriptional activity was also assessed by site-directed calcium buffering. HeLa cells were co-transfected with the κB-luciferase plasmid as well as one of the following constructs: GFP empty vector, NES-PV-GFP, or NLS-PV-GFP and proper GFP localization was confirmed. Cells were grown in the presence of calcium for 24 hours before the addition of 100 nM triptolide and 15 ng/ml TNF-α.
NFκB transactivation was examined using the κb-luciferase reporter construct. HeLa cells were transiently transfected and pre-treated with 0-100 nM triptolide for one hour prior to TNF-α addition. Cells were assessed for NFκB driven luciferase expression after an additional five hours of incubation, at which time TNF-α had induced transcriptional activity by approximately 15-fold in control cells. […] The results thus far support a divergence of triptolide-mediated functions: the pathway regulating growth arrest/death is more sensitive to triptolide and calcium than the mechanism leading to transcriptional repression of NFκB.
Based upon Applicants' studies examining the concentration dependent effect of triptolide on the two measured biological endpoints, cell death and transcriptional repression, Applicants wanted to determine how modulating triptolide's structure may also discriminate between the two pathways. For cell viability assays, HeLa cells were incubated with 0, 0.1, 1, or 10 μM of each analog or triptolide for 24 hours and then counted using trypan blue dye exclusion. […] NFκB transcriptional inhibition was measured using the κB-luciferase assay as previously described following 5 hours of incubation with each analog (0-10 μM) and TNF-α addition.
A triple κB promoter-Luciferase reporter construct was a gift of Sankar Ghosh (Yale University). HeLa cells were plated at a density of 2×10^5 in 12 well plates and transfected with 100 ng of the κB-Luciferase plasmid plus Lipofectamine 2000 (Invitrogen) for 24 hours before the addition of 100 nM triptolide for one hour and 15 ng/ml of recombinant (human) TNF-α (Roche) for an additional five hours. The transfection efficiency of HeLa was determined to be 80-90%, and all samples were normalized to protein concentration. Luciferase assays were performed using the Firefly luciferase kit as per manufacturer's protocol (Promega) and results obtained on the Wallac Victor2 1420 Multilabel Counter (Perkin Elmer).
In general terms: Reporter assays use an easily measured gene product as a stand-in for the process of interest.

What is called inhibition is the percentage by which the read-out fell short of the control. Low readings indicate little suppression, high ones strong suppression. In the case of `CC(C)[C@]12O[C@H]1[C@@H]1O[C@]13[C@]1(O[C@H]1C[C@H]1C4=C(CC[C@@]13C)C(=O)OC4)[C@@H]2O` [triptolide, Triptolide], the “TNF-α driven transcriptional activity of NFκB” value (10 nM, 6 hours) is “did not inhibit” and the “TNF-α driven transcriptional activity of NFκB” value (25 nM, 6 hours) was “did not inhibit”. For the same molecule, where the note is “50 nM, 6 hours”, the “suppression of NFκB transcriptional activity” value is listed as 20%. In addition, the inhibition at 0.1 µM (0.1 μM, 5 hours with TNF-α, analog study) was over 60%. In addition, under “100 nM, 6 hours, average”, the “inhibition of NFκB transcriptional activity” value is listed as 60%. Under “100 nM, GFP vector, NES-PV-GFP or NLS-PV-GFP co-transfected”, the NFκB transactivation entry was “retained the ability to suppress NFκB transactivation in all experimental conditions”. In addition, the “TNF-α induced NFκB transactivation” value (100 nM, presence and absence of calcium) is “effectively inhibited”. Further, the “NFκB transcriptional activity at higher concentration” value (1 or 10 μM, 5 hours) is listed as “attenuated further”.
